According to patent publication US20260201008A1, “SECRETIN-DERIVED GLP1R SELECTIVE AGONISTS” (GUBRA A/S, priority 2023, published 2026):
Like-named read-outs stand apart in the source and are kept apart here. Numbered stars: 1 amine (or outer) side, 2 acyl side, 3 side chain; on linkers, the order of the positions; unused ones are H or OH. Square brackets hold non-standard residues; d marks the D form. Side chains are listed from the residue outwards. Peptide text beside a SMILES is read from it. * marks the point of attachment. C20 diacid = O=C(O)CCCCCCCCCCCCCCCCCCC(=O)*; γGlu = O=C(O)[C@H](CCC(=O)[*:2])N[*:1]; AEEA = NCCOCCOCC(=O)O; Aib = CC(C)(N)C(=O)O

Assays:
GLP1R = GLP1R (Homo sapiens, UniProt P43220); assay: hGLP1R potency, cAMP accumulation in CHO-K1 cells stably overexpressing hGLP1R; format: cell-based; parameters: host or cells: CHO-K1; conditions: for EC50: cAMP accumulation, CHO-K1 cells overexpressing hGLP1R; for SCTR EC50/GLP1R EC50 ratio: selectivity for hGLP1R over hSCTR, cAMP accumulation in CHO-K1 cells; for Selectivity: SCTR EC50/GLP1R EC50 ratio
GLP1R, sequence (P43220 24-463): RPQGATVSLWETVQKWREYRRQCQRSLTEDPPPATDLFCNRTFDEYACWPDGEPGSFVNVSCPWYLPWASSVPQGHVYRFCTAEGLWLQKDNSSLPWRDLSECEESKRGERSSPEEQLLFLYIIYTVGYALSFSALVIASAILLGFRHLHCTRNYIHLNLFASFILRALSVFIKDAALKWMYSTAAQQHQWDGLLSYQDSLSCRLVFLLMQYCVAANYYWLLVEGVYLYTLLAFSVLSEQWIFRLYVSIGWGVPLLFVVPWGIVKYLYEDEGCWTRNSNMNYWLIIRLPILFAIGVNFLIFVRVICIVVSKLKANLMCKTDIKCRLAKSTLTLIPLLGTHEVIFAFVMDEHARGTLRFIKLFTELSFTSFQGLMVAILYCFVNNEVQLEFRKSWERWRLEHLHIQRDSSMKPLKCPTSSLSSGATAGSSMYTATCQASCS
Summary of the method: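 TR-FRET cAMP read-out, one hour after reagent addition, following 30 min compound exposure at RT in DPBS/0.05% casein/0.5 mM IBMX. Crude peptides: 5 points, 10-fold steps, n=1. Purified peptides: 11 points, 3-fold steps, n=2. EC50 fitted with a variable-slope sigmoid.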

[1] = Fibril formation of crude library peptides (Thioflavin T); format: physicochemical; parameters: key: average ThT fluorescence emission at 480 nm (ex 450 nm), raw units; conditions: Physical stability of peptides
Summary of the method: (§1)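 Fibril formation is scored as average ThT fluorescence from duplicate samples monitored for 72 h at 40° C with shaking stress. Turbidity is the absorbance at 600 nm taken before heating. Peptide concentration was 267 μM at pH 4.0 or pH 7.0.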

SCTR = SCTR (Homo sapiens, UniProt P47872); assay: hSCTR potency, cAMP accumulation in CHO-K1 cells stably overexpressing hSCTR; format: cell-based; parameters: alternatively Euroscreen ES-712-AF; FAST-0161L; host or cells: CHO-K1; conditions: cAMP accumulation, CHO-K1 cells overexpressing hSCTR
SCTR, sequence (P47872 23-440): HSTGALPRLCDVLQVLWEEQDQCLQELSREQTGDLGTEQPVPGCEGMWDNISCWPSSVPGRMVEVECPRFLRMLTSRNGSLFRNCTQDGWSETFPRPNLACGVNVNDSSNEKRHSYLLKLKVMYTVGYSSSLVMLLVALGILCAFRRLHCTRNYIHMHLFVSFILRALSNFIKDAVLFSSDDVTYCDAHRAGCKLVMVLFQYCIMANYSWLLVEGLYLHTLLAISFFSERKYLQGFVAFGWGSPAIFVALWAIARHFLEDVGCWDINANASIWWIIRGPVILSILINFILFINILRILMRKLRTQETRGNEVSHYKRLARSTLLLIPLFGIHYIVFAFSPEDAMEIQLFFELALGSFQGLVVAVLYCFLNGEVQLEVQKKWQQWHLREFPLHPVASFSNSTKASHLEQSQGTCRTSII
Summary of the method: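 CHO-K1/hSCTR cells; DPBS + 0.05% casein + 0.5 mM IBMX; 30 min RT stimulation; cAMP by TR-FRET read at 1 h. Crude peptides: 5-point 10-fold dilutions, n=1. Purified: 11-point 3-fold dilutions, n=2. EC50 via variable-slope fit.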

[2] = Turbidity of crude library peptides (absorbance at 600 nm); format: physicochemical; conditions: Physical stability of peptides
Summary of the method: as §1

[3] = read-out: hGLP1R pEC50 (converted)
[4] = read-out: hSCTR pEC50 (converted)
[5] = read-out: pEC50 hGLPR1 (converted)
[6] = read-out: pEC50 hSCTR (converted)

Row | SMILES | EC50 (GLP1R; [3]) [nM] | SCTR EC50/GLP1R EC50 ratio (GLP1R) | Fibril formation [1] | EC50 (SCTR; [4]) [nM] | Turbidity (pH 7) [2] | Selectivity (GLP1R) | EC50 (GLP1R; [5]) [nM] | EC50 (SCTR; [6]) [nM]
1 | CC(C)C[C@H](NC(=O)[C@H](Cc1ccccc1)NC(=O)[C@H](CCCNC(=N)N)NC(=O)[C@H](CCC(N)=O)NC(=O)[C@H](CO)NC(=O)C(C)(C)NC(=O)[C@H](C)NC(=O)[C@H](CCC(=O)O)NC(=O)[C@H](CCC(=O)O)NC(=O)[C@H](CCCCNC(=O)COCCOCCNC(=O)COCCOCCNC(=O)CC[C@H](NC(=O)CCCCCCCCCCCCCCCCCCC(=O)O)C(=O)O)NC(=O)[C@H](CC(C)C)NC(=O)[C@H](Cc1ccc(O)cc1)NC(=O)[C@H](CO)NC(=O)[C@@H](NC(=O)[C@H](CC(=O)O)NC(=O)[C@H](CO)NC(=O)[C@@H](NC(=O)[C@H](Cc1ccccc1)NC(=O)[C@@H](NC(=O)CNC(=O)[C@H](CCC(=O)O)NC(=O)C(C)(C)NC(=O)[C@@H](N)Cc1c[nH]cn1)[C@@H](C)O)[C@@H](C)O)C(C)C)C(=O)N[C@@H](CCC(=O)O)C(=O)N[C@@H](Cc1c[nH]cn1)C(=O)N[C@@H](CC(C)C)C(=O)N[C@H](C(N)=O)C(C)C [compound 134] (H-H[Aib]EGTFTSDVSYLK([AEEA-AEEA-γGlu-C20 diacid])EEA[Aib]SQRFLEHLV-NH2) | 0.00794 | 303145 | 3061 | 2510 | 0.08 | – | – | –
2 | CC(C)C[C@H](NC(=O)[C@H](Cc1ccccc1)NC(=O)[C@H](CCCNC(=N)N)NC(=O)[C@H](CCC(N)=O)NC(=O)[C@H](CC(C)C)NC(=O)C(C)(C)NC(=O)[C@H](C)NC(=O)[C@H](CCC(=O)O)NC(=O)[C@H](CCC(=O)O)NC(=O)[C@H](CCCCNC(=O)COCCOCCNC(=O)COCCOCCNC(=O)CC[C@H](NC(=O)CCCCCCCCCCCCCCCCCCC(=O)O)C(=O)O)NC(=O)[C@H](CC(C)C)NC(=O)[C@H](Cc1ccc(O)cc1)NC(=O)[C@H](CO)NC(=O)[C@@H](NC(=O)[C@H](CC(=O)O)NC(=O)[C@H](CO)NC(=O)[C@@H](NC(=O)[C@H](Cc1ccccc1)NC(=O)[C@@H](NC(=O)CNC(=O)[C@H](Cc1c[nH]cn1)NC(=O)C(C)(C)NC(=O)[C@@H](N)Cc1c[nH]cn1)[C@@H](C)O)[C@@H](C)O)C(C)C)C(=O)N[C@@H](CCC(=O)O)C(=O)N[C@@H](Cc1c[nH]cn1)C(=O)N[C@@H](CC(C)C)C(=O)N[C@H](C(N)=O)C(C)C [compound 171] (H-H[Aib]HGTFTSDVSYLK([AEEA-AEEA-γGlu-C20 diacid])EEA[Aib]LQRFLEHLV-NH2) | 0.158 | 209459 | 3473 | 31600 | 0.08 | – | – | –
3 | CC(C)C[C@H](NC(=O)[C@H](Cc1ccccc1)NC(=O)[C@H](CCCNC(=N)N)NC(=O)[C@H](CCC(N)=O)NC(=O)C(C)(C)NC(=O)[C@H](C)NC(=O)[C@H](C)NC(=O)C(C)(C)NC(=O)[C@H](CCC(=O)O)NC(=O)[C@H](CCCCNC(=O)COCCOCCNC(=O)COCCOCCNC(=O)CC[C@H](NC(=O)CCCCCCCCCCCCCCCCCCC(=O)O)C(=O)O)NC(=O)[C@H](CC(C)C)NC(=O)[C@@H](NC(=O)[C@H](CO)NC(=O)[C@@H](NC(=O)[C@H](CC(=O)O)NC(=O)[C@H](CO)NC(=O)[C@@H](NC(=O)[C@H](Cc1ccccc1)NC(=O)[C@@H](NC(=O)CNC(=O)[C@H](CCC(=O)O)NC(=O)C(C)(C)NC(=O)[C@@H](N)Cc1c[nH]cn1)[C@@H](C)O)[C@@H](C)O)C(C)C)[C@@H](C)O)C(=O)N[C@@H](CCC(=O)O)C(=O)N[C@@H](Cc1c[nH]cn1)C(=O)N[C@@H](CC(C)C)C(=O)N[C@H](C(N)=O)C(C)C [compound 32] (H-H[Aib]EGTFTSDVSTLK([AEEA-AEEA-γGlu-C20 diacid])E[Aib]AA[Aib]QRFLEHLV-NH2) | – | – | 16551 | – | 0.08 | 23147 | 0.0251 | 631
4 | CC(C)C[C@H](NC(=O)[C@H](Cc1ccccc1)NC(=O)[C@H](CCCNC(=N)N)NC(=O)[C@H](CCC(N)=O)NC(=O)C(C)(C)NC(=O)[C@H](C)NC(=O)[C@H](C)NC(=O)[C@@H](NC(=O)[C@H](CCC(=O)O)NC(=O)[C@H](CCCCNC(=O)COCCOCCNC(=O)COCCOCCNC(=O)CC[C@H](NC(=O)CCCCCCCCCCCCCCCCCCC(=O)O)C(=O)O)NC(=O)[C@H](CC(C)C)NC(=O)[C@@H](NC(=O)[C@H](CO)NC(=O)[C@@H](NC(=O)[C@H](CC(=O)O)NC(=O)[C@H](CO)NC(=O)[C@@H](NC(=O)[C@H](Cc1ccccc1)NC(=O)[C@@H](NC(=O)CNC(=O)[C@H](CCC(=O)O)NC(=O)C(C)(C)NC(=O)[C@@H](N)Cc1c[nH]cn1)[C@@H](C)O)[C@@H](C)O)C(C)C)C(C)C)[C@@H](C)O)C(=O)N[C@@H](CCC(=O)O)C(=O)N[C@@H](Cc1c[nH]cn1)C(=O)N[C@@H](CC(C)C)C(=O)N[C@H](C(N)=O)C(C)C [compound 101] (H-H[Aib]EGTFTSDVSVLK([AEEA-AEEA-γGlu-C20 diacid])ETAA[Aib]QRFLEHLV-NH2) | 0.2 | 5030 | 8172 | 1000 | 0.08 | – | – | –
5 | CC[C@H](C)[C@H](NC(=O)[C@H](Cc1ccccc1)NC(=O)[C@H](CCCNC(=N)N)NC(=O)[C@H](CCC(N)=O)NC(=O)[C@H](CC(C)C)NC(=O)[C@H](C)NC(=O)[C@H](C)NC(=O)CNC(=O)[C@H](CCC(=O)O)NC(=O)[C@H](CC(C)C)NC(=O)[C@H](CC(C)C)NC(=O)CNC(=O)[C@H](CO)NC(=O)[C@@H](NC(=O)[C@H](CC(=O)O)NC(=O)[C@H](CO)NC(=O)[C@@H](NC(=O)[C@H](Cc1ccccc1)NC(=O)[C@@H](NC(=O)CNC(=O)[C@H](CCC(=O)O)NC(=O)C(C)(C)NC(=O)[C@@H](N)Cc1c[nH]cn1)[C@@H](C)O)[C@@H](C)O)C(C)C)C(=O)N[C@@H](CCC(N)=O)C(=O)N[C@@H](Cc1c[nH]c2ccccc12)C(=O)N[C@@H](CC(C)C)C(=O)N[C@H](C(N)=O)C(C)C [compound 182] (H-H[Aib]EGTFTSDVSGLLEGAALQRFIQWLV-NH2) | 0.0501 | 2754 | 253106 | 158 | 0.40 | – | – | –

Other lines, results leading:

Row | EC50 (GLP1R; [3]) [nM] | SCTR EC50/GLP1R EC50 ratio (GLP1R) | Fibril formation [1] | EC50 (SCTR; [4]) [nM] | Turbidity (pH 7) [2] | Selectivity (GLP1R) | EC50 (GLP1R; [5]) [nM] | EC50 (SCTR; [6]) [nM] | SMILES
6 | 0.00794 | 9970 | 4019 | 79.4 | 0.09 | – | – | – | CC(C)C[C@H](NC(=O)[C@H](C)NC(=O)[C@H](C)NC(=O)[C@H](CCC(=O)O)NC(=O)[C@H](CCC(=O)O)NC(=O)[C@H](CCCCNC(=O)COCCOCCNC(=O)COCCOCCNC(=O)CC[C@H](NC(=O)CCCCCCCCCCCCCCCCCCC(=O)O)C(=O)O)NC(=O)[C@H](CC(C)C)NC(=O)[C@H](Cc1ccc(O)cc1)NC(=O)[C@H](CO)NC(=O)[C@@H](NC(=O)[C@H](CC(=O)O)NC(=O)[C@H](CO)NC(=O)[C@@H](NC(=O)[C@H](Cc1ccccc1)NC(=O)[C@@H](NC(=O)CNC(=O)[C@H](CCC(=O)O)NC(=O)C(C)(C)NC(=O)[C@@H](N)Cc1c[nH]cn1)[C@@H](C)O)[C@@H](C)O)C(C)C)C(=O)N[C@@H](CCC(N)=O)C(=O)N[C@@H](CCCNC(=N)N)C(=O)N[C@@H](Cc1ccccc1)C(=O)N[C@@H](CC(C)C)C(=O)N[C@@H](CCC(=O)O)C(=O)N[C@@H](Cc1c[nH]cn1)C(=O)N[C@@H](CC(C)C)C(=O)N[C@H](C(N)=O)C(C)C [compound 137] (H-H[Aib]EGTFTSDVSYLK([AEEA-AEEA-γGlu-C20 diacid])EEAALQRFLEHLV-NH2)
7 | – | – | 9674 | – | 0.09 | 6482 | 0.00316 | 25.1 | CC(C)C[C@H](NC(=O)[C@H](Cc1ccccc1)NC(=O)[C@H](CCCNC(=N)N)NC(=O)[C@H](CCC(N)=O)NC(=O)[C@@H](NC(=O)[C@H](C)NC(=O)[C@H](C)NC(=O)[C@H](CCC(=O)O)NC(=O)[C@H](CCC(=O)O)NC(=O)[C@H](CCCCNC(=O)COCCOCCNC(=O)COCCOCCNC(=O)CC[C@H](NC(=O)CCCCCCCCCCCCCCCCCCC(=O)O)C(=O)O)NC(=O)[C@H](CC(C)C)NC(=O)[C@H](CCCNC(=N)N)NC(=O)[C@H](CO)NC(=O)[C@@H](NC(=O)[C@H](CC(=O)O)NC(=O)[C@H](CO)NC(=O)[C@@H](NC(=O)[C@H](Cc1ccccc1)NC(=O)[C@@H](NC(=O)CNC(=O)[C@H](CCC(=O)O)NC(=O)C(C)(C)NC(=O)[C@@H](N)Cc1c[nH]cn1)[C@@H](C)O)[C@@H](C)O)C(C)C)[C@@H](C)O)C(=O)N[C@@H](CCC(=O)O)C(=O)N[C@@H](Cc1c[nH]cn1)C(=O)N[C@@H](CC(C)C)C(=O)N[C@H](C(N)=O)C(C)C [compound 65] (H-H[Aib]EGTFTSDVSRLK([AEEA-AEEA-γGlu-C20 diacid])EEAATQRFLEHLV-NH2)
